# Laboratory results reported in US20250361230A1, “LATS Inhibitors and Uses Thereof” (The USA, as Represented by the Secretary, Dept. of Heath …, priority 2022, published 2025).
# Where two headings read alike, the source gives them in different places.
# Experiments:
# Format in all cases: biochemical
# [1] = target: T1, LATS1 (Homo sapiens, UniProt O95835); assay: RBC HotSpot kinase assay (33P-ATP, P81 filter-binding), LATS1; details: read-out: LATS1 IC50
# T1 sequence (O95835 1-1130): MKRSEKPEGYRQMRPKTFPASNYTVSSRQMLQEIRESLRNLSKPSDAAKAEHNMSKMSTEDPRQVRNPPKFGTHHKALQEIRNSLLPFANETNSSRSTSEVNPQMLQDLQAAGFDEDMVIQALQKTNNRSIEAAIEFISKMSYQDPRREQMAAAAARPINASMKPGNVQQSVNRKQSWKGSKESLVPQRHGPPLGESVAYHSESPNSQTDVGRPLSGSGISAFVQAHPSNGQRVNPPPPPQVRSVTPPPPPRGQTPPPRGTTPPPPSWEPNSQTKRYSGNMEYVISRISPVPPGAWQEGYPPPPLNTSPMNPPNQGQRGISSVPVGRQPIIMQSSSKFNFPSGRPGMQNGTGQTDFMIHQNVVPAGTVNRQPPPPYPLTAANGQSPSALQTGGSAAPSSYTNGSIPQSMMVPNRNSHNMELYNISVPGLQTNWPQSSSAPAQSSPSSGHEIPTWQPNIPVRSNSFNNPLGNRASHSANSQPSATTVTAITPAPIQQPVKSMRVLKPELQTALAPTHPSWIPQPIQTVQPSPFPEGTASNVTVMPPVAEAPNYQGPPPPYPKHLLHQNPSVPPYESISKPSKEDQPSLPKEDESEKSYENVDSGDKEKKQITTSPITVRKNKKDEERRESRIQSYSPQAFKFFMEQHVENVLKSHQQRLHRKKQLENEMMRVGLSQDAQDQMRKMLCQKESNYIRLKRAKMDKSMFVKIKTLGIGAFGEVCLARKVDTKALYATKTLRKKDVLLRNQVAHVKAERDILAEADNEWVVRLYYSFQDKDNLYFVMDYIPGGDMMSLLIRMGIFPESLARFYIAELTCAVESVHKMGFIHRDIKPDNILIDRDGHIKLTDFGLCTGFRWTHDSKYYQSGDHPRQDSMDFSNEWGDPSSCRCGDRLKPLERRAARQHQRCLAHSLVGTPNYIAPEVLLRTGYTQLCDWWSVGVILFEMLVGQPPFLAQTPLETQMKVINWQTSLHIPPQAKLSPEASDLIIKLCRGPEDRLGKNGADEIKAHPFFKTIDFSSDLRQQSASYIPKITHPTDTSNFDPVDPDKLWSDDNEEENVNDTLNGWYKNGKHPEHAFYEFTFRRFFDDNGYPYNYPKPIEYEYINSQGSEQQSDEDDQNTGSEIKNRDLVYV
# Outline: (§1)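 Radiometric 33P-ATP kinase reaction in 20 mM Hepes pH 7.5, 10 mM MgCl2, 1 mM EGTA, 0.01% Brij35, 0.02 mg/ml BSA, 0.1 mM Na3VO4, 2 mM DTT, 1% DMSO. Compound preincubated with kinase and substrate 20 min, then 2 h at room temperature; P81 filter-binding read-out. IC50 (nM) from 10-point singlet curves.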
# [2] = target: T2, LATS2 (Homo sapiens, UniProt Q9NRM7); assay: RBC HotSpot kinase assay (33P-ATP, P81 filter-binding), LATS2; details: read-out: LATS2 IC50
# T2 sequence (Q9NRM7 1-1088): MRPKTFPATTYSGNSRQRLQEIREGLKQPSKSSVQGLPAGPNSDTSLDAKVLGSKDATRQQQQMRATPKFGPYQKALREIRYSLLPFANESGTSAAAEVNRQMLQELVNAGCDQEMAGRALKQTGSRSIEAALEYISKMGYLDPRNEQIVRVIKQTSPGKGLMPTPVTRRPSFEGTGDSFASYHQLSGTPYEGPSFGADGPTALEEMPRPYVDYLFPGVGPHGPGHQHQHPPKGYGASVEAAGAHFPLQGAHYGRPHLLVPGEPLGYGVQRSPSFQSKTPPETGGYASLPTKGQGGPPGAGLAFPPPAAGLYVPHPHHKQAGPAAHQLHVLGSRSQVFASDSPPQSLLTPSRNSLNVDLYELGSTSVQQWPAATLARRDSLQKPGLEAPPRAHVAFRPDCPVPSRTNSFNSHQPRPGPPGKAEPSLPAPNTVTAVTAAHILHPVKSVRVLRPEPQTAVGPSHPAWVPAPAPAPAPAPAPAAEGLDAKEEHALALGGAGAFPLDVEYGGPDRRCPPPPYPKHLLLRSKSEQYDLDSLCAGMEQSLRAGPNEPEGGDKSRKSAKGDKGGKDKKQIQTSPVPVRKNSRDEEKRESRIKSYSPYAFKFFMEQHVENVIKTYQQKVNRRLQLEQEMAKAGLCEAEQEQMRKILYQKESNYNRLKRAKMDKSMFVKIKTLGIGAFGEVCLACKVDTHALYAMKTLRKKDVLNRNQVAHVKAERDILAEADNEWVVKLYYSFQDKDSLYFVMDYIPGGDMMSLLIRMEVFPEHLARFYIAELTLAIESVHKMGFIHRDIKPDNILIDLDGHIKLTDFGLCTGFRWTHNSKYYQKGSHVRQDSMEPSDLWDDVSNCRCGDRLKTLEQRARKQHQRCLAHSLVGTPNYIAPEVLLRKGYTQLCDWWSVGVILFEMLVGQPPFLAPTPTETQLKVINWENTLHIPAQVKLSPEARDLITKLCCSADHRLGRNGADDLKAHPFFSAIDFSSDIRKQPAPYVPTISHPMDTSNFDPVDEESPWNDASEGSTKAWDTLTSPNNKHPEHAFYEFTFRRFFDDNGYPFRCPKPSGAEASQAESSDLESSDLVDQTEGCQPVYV
# Outline: as §1
# [3] = target: AKT (Homo sapiens, UniProt P31749); assay: RBC HotSpot kinase assay (33P-ATP, P81 filter-binding), AKT; details: read-out: AKT IC50
# Chain of AKT (P31749 whole entry): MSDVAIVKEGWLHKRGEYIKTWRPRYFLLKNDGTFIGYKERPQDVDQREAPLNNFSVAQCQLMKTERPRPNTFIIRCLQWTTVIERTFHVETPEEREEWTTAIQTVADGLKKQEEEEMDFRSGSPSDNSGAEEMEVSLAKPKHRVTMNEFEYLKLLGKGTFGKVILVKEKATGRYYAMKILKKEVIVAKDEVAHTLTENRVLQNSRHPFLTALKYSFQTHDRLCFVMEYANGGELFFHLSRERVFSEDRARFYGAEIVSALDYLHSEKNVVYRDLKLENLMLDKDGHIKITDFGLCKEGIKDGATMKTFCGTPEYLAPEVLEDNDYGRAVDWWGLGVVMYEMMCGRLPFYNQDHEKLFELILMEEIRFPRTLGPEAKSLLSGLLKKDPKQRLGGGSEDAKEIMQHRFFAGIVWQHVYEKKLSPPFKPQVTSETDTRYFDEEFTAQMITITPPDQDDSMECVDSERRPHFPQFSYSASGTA
# Outline: as §1
# [4] = Table 32, biochemical kinase assay
# [5] = Table 28, biochemical kinase assay
"IC50 [1, 5] [nM]","IC50 [2, 5] [nM]","IC50 [3, 5] [nM]",Structure (SMILES),further results
58,30,103,"CC1CC(O)(c2ccc(-c3ccnc4[nH]cc(Br)c34)cc2Cl)CC(C)N1 (stereo not drawn) [Compound 120, 4-(4-(3-bromo-1H-pyrrolo[2,3-b]pyridin-4-yl)-2-chlorophenyl)-2,6-dimethylpiperidin-4-ol]",–
14,13,517,"c1cc(-c2ccc3c(c2)CNC3)c2cc[nH]c2n1 [Compound 265, 4-(isoindolin-5-yl)-1H-pyrrolo[2,3-b]pyridine]",–
5.7,3.7,128,"CN1CCC(O)(c2ccc(-c3ccnc4[nH]cc(Br)c34)cc2)CC1 [Compound 124, 4-(4-(3-bromo-1H-pyrrolo[2,3-b]pyridin-4-yl)phenyl)-1-methylpiperidin-4-ol]",–
15.9,33.1,1430,"Fc1ccccc1CNCc1ccc(-c2ccnc3[nH]ccc23)cc1 [Compound 204, N-(4-(1H-pyrrolo[2,3-b]pyridin-4-yl)benzyl)-1-(2-fluorophenyl)methanamine]",–
1100,2140,> 10000,"Cc1cc(C2CCNCC2)ccc1-c1ccnc2[nH]ccc12 [Compound 176, 4-(2-methyl-4-(piperidin-4-yl)phenyl)-1H-pyrrolo[2,3-b]pyridine]",–
70,57,2110,"CC1CNCCC1c1ccc(-c2ccnc3[nH]ccc23)cc1 (stereo not drawn) [Compound 185, 4-(4-(3-methylpiperidin-4-yl)phenyl)-1H-pyrrolo[2,3-b]pyridine]",–
236,115,1010,"CC(C)c1c[nH]c2nccc(-c3ccc(CN)c(-c4ccccc4)c3)c12 [Compound 220, (5-(3-isopropyl-1H-pyrrolo[2,3-b]pyridin-4-yl)-[1,1′-biphenyl]-2-yl)methanamine]",–
736,682,7960,"Cc1nc(-c2ccnc3[nH]ccc23)ccc1C1(O)CCN(C)CC1 [Compound 135, 1-methyl-4-(2-methyl-6-(1H-pyrrolo[2,3-b]pyridin-4-yl)pyridin-3-yl)piperidin-4-ol]",–

# The next lines start with the compound.
Structure (SMILES),"IC50 [1, 5] [nM]","IC50 [2, 5] [nM]","IC50 [3, 5] [nM]",further results
"O=C(CO)NCC(O)(c1ccc(Cl)cc1)c1ccc(-c2ccnc3[nH]cc(Cl)c23)cc1 (stereo not drawn) [Compound 1017, N-(2-(4-(3-chloro-1H-pyrrolo[2,3-b]pyridin-4-y1)phenyl)-2-(4-chlorophenyl)-2-hydroxyethyl)-2-hydroxyacetamide]",–,–,–,"IC50 [1, 4]: 5.4 nM; IC50 [2, 4]: 2.8 nM; IC50 [3, 4]: 2.8 nM"
"Fc1cc(C2CCNCC2)ccc1-c1ccnc2[nH]ccc12 [Compound 181, 4-(2-fluoro-4-(piperidin-4-yl)phenyl)-1H-pyrrolo[2,3-b]pyridine]",68,87,3360,–
"CC(C)(N)c1ccc(-c2ccnc3[nH]ccc23)cc1 [Compound 226, 2-(4-(1H-pyrrolo[2,3-b]pyridin-4-yl)phenyl)propan-2-amine]",25.4,1.2,734,–
"CN[C@@H](CO)C(=O)N1C[C@@H](C)[C@](O)(c2c(C)cc(-c3ccnc4[nH]cc(C#N)c34)cc2F)[C@@H](C)C1 [Compound 2009, 4-(3-fluoro-4-((3S,4R,5R)-4-hydroxy-3,5-dimethyl-1-(methyl-L-seryl)piperidin-4-yl)-5-methylphenyl)-1H-pyrrolo[2,3-b]pyridine-3-carbonitrile]",–,–,–,IC50 ([1]; biochemical kinase inhibition): 4.8 nM; IC50 ([2]; biochemical kinase inhibition): 2.5 nM; IC50 ([3]; biochemical kinase inhibition): 244 nM
"C[C@H](N)C(=O)NCC(O)(c1ccc(Cl)cc1)c1ccc(-c2ccnc3[nH]ccc23)cc1 (stereo partly drawn) [Compound 1026, (2S)-N-(2-(4-(1H-pyrrolo[2,3-b]pyridin-4-yl)phenyl)-2-(4-chlorophenyl)-2-hydroxyethyl)-2-aminopropanamide]",–,–,–,"IC50 [1, 4]: 3.8 nM; IC50 [2, 4]: 2.3 nM; IC50 [3, 4]: 1.2 nM"
"Cc1cc(-c2ccnc3[nH]cc(F)c23)ncc1C1(O)[C@H](C)CN(C2CCS(=O)(=O)CC2)C[C@@H]1C (stereo partly drawn) [Compound 56, 4-((3R,5S)-4-(6-(3-fluoro-1H-pyrrolo[2,3-b]pyridin-4-yl)-4-methylpyridin-3-yl)-4-hydroxy-3,5-dimethylpiperidin-1-yl)tetrahydro-2H-thiopyran 1,1-dioxide]",2080,4250,> 10000,–
"FC(F)(F)c1cc(C2CCNCC2)ccc1-c1ccnc2[nH]ccc12 [Compound 182, 4-(4-(piperidin-4-yl)-2-(trifluoromethyl)phenyl)-1H-pyrrolo[2,3-b]pyridine]",1570,1770,> 10000,–
"OC1(c2ccc(-c3ccnc4[nH]cc(F)c34)cc2)C[C@H]2CC[C@@H](C1)N2 (stereo partly drawn) [Compound 114, (1R,5S)-3-(4-(3-fluoro-1H-pyrrolo[2,3-b]pyridin-4-yl)phenyl)-8-azabicyclo[3.2.1]octan-3-ol]",23,19,390,–
"CN[C@H](C)C(=O)N1C[C@@H](C)[C@](O)(c2c(C)cc(-c3ccnc4[nH]cc(F)c34)cc2F)[C@@H](C)C1 [Compound 316, (R)-1-((3S,4S,5R)-4-(2-fluoro-4-(3-fluoro-1H-pyrrolo[2,3-b]pyridin-4-yl)-6-methylphenyl)-4-hydroxy-3,5-dimethylpiperidin-1-yl)-2-(methylamino) propan-1-one]",12,6.8,1370,–
"Cc1cc(-c2ccnc3[nH]cc(F)c23)cc(F)c1[C@@]1(O)[C@H](C)CN(C(=O)[C@@H]2CC(F)(F)CN2)C[C@@H]1C [Compound 64, ((S)-4,4-difluoropyrrolidin-2-yl)((3S,4R,5R)-4-(2-fluoro-4-(3-fluoro-1H-pyrrolo[2,3-b]pyridin-4-yl)-6-methylphenyl)-4-hydroxy-3,5-dimethylpiperidin-1-yl)methanone]",6.7,3.6,3140,–
"C[C@@H]1CN(Cc2ccccc2)C[C@H](C)[C@@]1(O)c1c(F)cc(-c2ccnc3[nH]cc(F)c23)cc1F [Compound 93, (3S,4s,5R)-1-benzyl-4-(2,6-difluoro-4-(3-fluoro-1H-pyrrolo[2,3-b]pyridin-4-yl)phenyl)-3,5-dimethylpiperidin-4-ol]",10.6,7.7,2090,–
